15 compounds from PubChem BioAssay (NCI) can be followed below.

Some test systems named below: HOP-62 NSCLC; SN12C renal; RPMI-8226 leukemia; SF-539 CNS; OVCAR-4 ovarian; HT29 colon; HL-60(TB) leukemia; HCC-2998 colon; NCI/ADR-RES ovarian; MDA-MB-435; DU-145 prostate; MDA-MB-231 breast; T-47D breast.
Holding throughout (test): NCI anticancer screen, dose series, 48 h

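All cell lines were grown in 96-well plates and treated with compound for 48 hours. TGI denotes the concentration required for complete inhibition of growth.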

For `CCCCCCCCCCCOc1ccc(C(=O)C(=O)c2ccc(OCCCCCCCCCCC)c(OCCCCCCCCCCC)c2)cc1OCCCCCCCCCCC`, the TGI in the test on HOP-62 NSCLC, in the test with SN12C renal, in the test with RPMI-8226 leukemia, in the test on SF-539 CNS, in the test on OVCAR-4 ovarian and with HT29 colon was > 100 µM throughout. The TGI in the test on HL-60(TB) leukemia and with HCC-2998 colon was > 100 µM in each case.
`CC(N)Cc1ccc(C(=O)Cl)cc1` (centres undefined): the TGI with HOP-62 NSCLC, in the test on SN12C renal, in the test with RPMI-8226 leukemia, in the test with SF-539 CNS, in the test on OVCAR-4 ovarian and in the test with HT29 colon was > 100 µM each time. Further, the TGI in the test with HCC-2998 colon was > 100 µM.
Consider `COc1cc(/C=C2\S/C(=N/Nc3nc(-c4ccc(Br)cc4)cs3)NC2=O)cc(OC)c1OC`, for which the TGI in the test with HOP-62 NSCLC was 30.3 µM; in the test with SN12C renal, > 100 µM; in the test on SF-539 CNS, 29.1 µM; in the test with NCI/ADR-RES ovarian, 35.1 µM; with OVCAR-4 ovarian, 85 µM; in the test on MDA-MB-435 it was 46.3 µM. Further, the TGI in the test on DU-145 prostate was 52.4 µM; in the test on HT29 colon, 32.5 µM; in the test with MDA-MB-231 breast, 47.6 µM; in the test with HCC-2998 colon, 32.5 µM.
As to `CC(C)/C(Cl)=N\OC(=O)Nc1ccc(S(N)(=O)=O)cc1`, the TGI was > 57.2 µM in the test with HOP-62 NSCLC; 29.2 µM in the test on SN12C renal; 4.97 µM with RPMI-8226 leukemia; 31.5 µM in the test with SF-539 CNS; 52 µM with T-47D breast; 40.5 µM in the test with NCI/ADR-RES ovarian. Besides, the TGI in the test with OVCAR-4 ovarian is 40.1 µM; in the test with DU-145 prostate, 31.8 µM; with HT29 colon, 48.4 µM; in the test on MDA-MB-231 breast, 25.9 µM; in the test on HCC-2998 colon, 32.7 µM.
Consider `COc1nc(N)c(C(=O)CCl)c(=O)n1C`, for which the TGI in the test on SN12C renal came to 45.2 µM; with RPMI-8226 leukemia, 32.4 µM; with SF-539 CNS, 32.6 µM; with OVCAR-4 ovarian, 33.2 µM; in the test with HT29 colon, 32.3 µM; in the test with HL-60(TB) leukemia, 5.61 µM. This compound showed a TGI in the test with HCC-2998 colon of 23 µM.
Consider `CC1C=C(CCCCCCCCCCCC[C@@H](O)[C@@H]2CC[C@@H]([C@@H]3CC[C@@H](C(O)CCCCCCCCCCCCC4=C[C@H](C)OC4=O)O3)O2)C(=O)O1` (some centres undefined), for which the TGI is > 100 µM in the test with HOP-62 NSCLC; > 100 µM with SN12C renal; > 84.5 µM with RPMI-8226 leukemia; 52.6 µM with SF-539 CNS; > 100 µM with HT29 colon; > 100 µM in the test on HL-60(TB) leukemia. Moreover, in the test on HCC-2998 colon, the TGI is > 100 µM.
Regarding `O=C1c2ccccc2C2C1N2C(=O)C(F)(F)F` (centres undefined), the TGI in the test with HOP-62 NSCLC, in the test with SN12C renal, with RPMI-8226 leukemia, in the test on SF-539 CNS, with OVCAR-4 ovarian and in the test on HT29 colon was > 100 µM in each case. The compound also displayed a TGI in the test with HL-60(TB) leukemia of 91.5 µM.
In the case of `CC(=O)NC1=C(NCCC(C)C)C(=O)c2ccccc2C1=O`, the TGI with HOP-62 NSCLC, with SN12C renal, in the test on SF-539 CNS, with OVCAR-4 ovarian, in the test with HT29 colon and in the test with HL-60(TB) leukemia was > 50 µM each time. Further, the TGI in the test on HCC-2998 colon was > 50 µM.
As for `O=C(Cc1cccs1)N[C@@H]1C(=O)N2C(C(=O)OC(c3ccccc3)c3ccccc3)=C(CO)CS[C@H]12`, the TGI in the test with SN12C renal, in the test on RPMI-8226 leukemia, with SF-539 CNS, with NCI/ADR-RES ovarian, in the test on OVCAR-4 ovarian and in the test on MDA-MB-435 was > 100 µM each time. Besides, the TGI with DU-145 prostate, with MDA-MB-231 breast, with HL-60(TB) leukemia and with HCC-2998 colon was > 100 µM in each case.
Consider `CC(=O)NNc1nc(C)c(C(=O)NNC(=O)C(=O)Nc2c(Cl)cc([N+](=O)[O-])cc2Cl)s1`, for which the TGI is > 100 µM in the test with HOP-62 NSCLC; > 100 µM with SN12C renal; > 100 µM in the test on RPMI-8226 leukemia; 66.8 µM in the test with SF-539 CNS; 63.2 µM in the test on OVCAR-4 ovarian; > 100 µM with HT29 colon. In addition, the TGI was 84.7 µM with HL-60(TB) leukemia and > 100 µM in the test with HCC-2998 colon.
Take `CCOC(=O)C1=C(C)NC(=S)NC1c1ccccc1` (centres undefined): the TGI in the test with HOP-62 NSCLC is > 100 µM; in the test on SN12C renal, > 100 µM; in the test on RPMI-8226 leukemia, > 65.6 µM; with SF-539 CNS, > 100 µM; in the test on OVCAR-4 ovarian, > 100 µM; in the test with HT29 colon it was > 100 µM. Also, the TGI in the test on HL-60(TB) leukemia and with HCC-2998 colon was > 100 µM each time.
For the compound `N.N.N.N.O=[N+]([O-])[O-].[Co+3].[N-]=[N+]=[N-].[N-]=[N+]=[N-]`, the TGI in the test with HOP-62 NSCLC, with SN12C renal, in the test with RPMI-8226 leukemia, in the test on SF-539 CNS, with OVCAR-4 ovarian and with HT29 colon was > 100 µM throughout. The TGI with HL-60(TB) leukemia and in the test on HCC-2998 colon was > 100 µM each time.
On to `CCC12C=CCN3CCC4(C(=C(C(=O)OC)[C@@H]1O)Nc1ccccc14)C32` (some centres undefined), for which the TGI in the test with HOP-62 NSCLC is 4.12 µM; in the test on SN12C renal it was 5.71 µM; in the test on RPMI-8226 leukemia, 6 µM; with SF-539 CNS, 4.72 µM; in the test with OVCAR-4 ovarian it was 4.17 µM; in the test with HT29 colon, 3.76 µM. Besides, the TGI in the test on HL-60(TB) leukemia came out at 4.98 µM; in the test on HCC-2998 colon, 3.06 µM.
In the case of `FC(F)(F)c1cc(Cl)cnc1N/N=C(/c1ccccc1)c1ccccn1`, the TGI is 19.7 µM in the test with HOP-62 NSCLC; > 100 µM in the test with SN12C renal; > 100 µM with RPMI-8226 leukemia; 12.9 µM in the test with SF-539 CNS; 6.76 µM in the test with NCI/ADR-RES ovarian; 29.4 µM in the test on OVCAR-4 ovarian. In addition, the TGI with MDA-MB-435 was > 100 µM; with DU-145 prostate, > 100 µM; in the test on HT29 colon, 20.5 µM; in the test on MDA-MB-231 breast, 40.2 µM; with HCC-2998 colon, > 100 µM.
As for `CC(=O)Nc1ccc(-c2nnc(SCC(=O)Nc3ccc([N+](=O)[O-])cc3)o2)cc1`, the TGI in the test on HOP-62 NSCLC is 53.4 µM; in the test on SN12C renal it was 29.8 µM; in the test with RPMI-8226 leukemia, > 100 µM; with SF-539 CNS, 39.2 µM; in the test on OVCAR-4 ovarian, 26.3 µM; with HT29 colon it was 27.3 µM. The TGI in the test on HL-60(TB) leukemia is > 100 µM.
